Results on 7 compounds are retold here after patent publication US4456611A, “Derivatives of 2-[3-(3-indoly)2-amino propionyloxy] acetic acid, and seritoning increasing use thereof” (Laboratoires Panmedica, priority 1981, dated 1984).

Data set [1] relates to endogenous serotonin in the brain. As to the kind of experiment: biochemical assay of endogenous serotonin in the brain of rats after oral administration of a single dose. The class given is in vivo. The following applies: orally, single dose of 10 mg/kg, Wistar male adult rats. The procedure: The compounds according to the invention show remarkable pharmacological activities, in particular on the central nervous system. These assays were carried out after administration orally of a single dose of 10 mg/kg in Wistar male adult rats.

A short description of data set [2]: acute toxicity in the mouse (LD50). To be noted: in vivo, po, orally. The procedure:
The acute toxicities of the derivatives according to the invention in the mouse are very much less than those of L 5-HTP. Thus the LD50's of all of the compounds according to the invention are higher than 1250 mg/kg, whereas the LD50 (orally) of L 5-HTP is equal to 700 mg/kg.

`N[C@@H](Cc1c[nH]c2ccc(O)cc12)C(=O)O` [(L)5 HTP, 5-hydroxy-tryptophane, reference compound]: in data set [1], the “% increase of brain serotonin” value stood at 10%. Besides, the LD50 (as a rule, the dose expected to kill half of the subjects tested) in data set [2] was 700 mg/kg.

Regarding `CCOC(=O)COC(=O)[C@@H](N)Cc1c[nH]c2ccc(O)cc12` [Example 6b, Ethyl L-2-[3-(5-hydroxy 3-indolyl) 2-aminopropionyloxy]acetate], in data set [1], the “% increase of brain serotonin” value is reported as 22%.

On to `CCCCOC(=O)COC(=O)[C@@H](N)Cc1c[nH]c2ccc(O)cc12` [Example 8b, n-butyl L-2-[3-(5-hydroxy 3-indolyl) 2-aminopropionyloxy]acetate], for which the “% increase of brain serotonin” value in data set [1] was determined as 20%.

For `CCCCCCCCOC(=O)COC(=O)[C@@H](N)Cc1c[nH]c2ccc(O)cc12` [Example 12b, n-octyl L-2-[3-(5-hydroxy 3-indolyl) 2-aminopropionyloxy]acetate], the “% increase of brain serotonin” value in data set [1] is 15%.

For the compound `CCCCCCCCCCCCOC(=O)COC(=O)[C@@H](N)Cc1c[nH]c2ccc(O)cc12` [Example 13b, n-dodecyl L-2-[3-(5-hydroxy 3-indolyl) 2-aminopropionyloxy]acetate], the “% increase of brain serotonin” value in data set [1] was 26%.

Take `CC(OC(=O)COC(=O)[C@@H](N)Cc1c[nH]c2ccc(O)cc12)C(C)(C)C` (stereo partly drawn) [Example 14c, (3,3-dimethyl) 2-butyl L-2-[3-(5-hydroxy 3-indolyl) 2-aminopropionyloxy]acetate]: in data set [1], the “% increase of brain serotonin” value came to 32%.

For the compound `N[C@@H](Cc1c[nH]c2ccc(O)cc12)C(=O)OCC(=O)OCC12CC3CC(CC(C3)C1)C2` [Example 15b, 1-adamantyl methyl L-2-[3-(5-hydroxy 3-indolyl) 2-aminopropionyloxy]acetate], the “% increase of brain serotonin” value in data set [1] was found to be 17%.
